Columns and labels:
[1] = test system: glucocorticoid-sensitive subclone (CEM-S2); test: MTS cell survival assay, CEM-S2; format: cell-based, human; settings: 72 hours
Experimental: (§1) In FIG. 5A, the polyclonal parental cell line (CCRF-CEM), the single cell-derived glucocorticoid-resistant subclone (CEM-R8) and the single cell-derived glucocorticoid-sensitive subclone (CEM-S2) were cultured for 72 hours in the presence of vehicle (ETOH) or dexamethasone at the concentrations indicated and cell viability was assessed by the MTS assay as described in Methods. In FIG. 5B, the glucocorticoid-resistant subclone (CEM-R8) and the glucocorticoid-sensitive subclone (CEM-S2) were cultured for 72 hours in the presence of hydrocortisone (HC) (10 μM HC for the CEM-R8 cells and 1 μM HC for the CEM-S2 cells), 10 μM forskolin (Fsk), 10 μM rolipram (Rol), or combinations of these agents as indicated, and cell viability was assessed by the MTS assay as described in Methods. FIG. 5C: The glucocorticoid-resistant subclone (CEM-R8) and the glucocorticoid-sensitive subclone (CEM-S2) were cultured for 72 hours in the presence of varying amounts of dibutyryl cAMP (db-cAMP) in the absence (−HC) or presence (+HC) of 1 μM hydrocortisone as indicated, and cell viability was assessed by the MTS assay as described in Methods. The data shown were normalized to the vehicle control. Results represent the mean±SD of triplicate determinations.
(§2) CCRF-CEM cells were obtained from ATCC^27. Leukemic or normal mononuclear cells were obtained by centrifugation over Histopaque 1077 (Sigma Chemical Company, St. Louis, Mo.). For purification of T cells, whole mononuclear cells from normal subjects were incubated with magnetic beads coated with appropriate antibodies, then positively purified using a magnet (Miltenyi). […]
(§3) Hoechst 33342 and DiOC6(3) apoptosis assays were performed as previously described^22,28. […] The absorbance (O.D.) of the formazan product was determined at 492 nm using a plate reader (Titertek Multiscan Plus, Labsystems). Percent cell viability was calculated as follows: (O.D. control sample−O.D. blank)/(O.D. test sample−O.D. blank)×100. […]

[2] = test system: glucocorticoid-resistant subclone (CEM-R8); test: MTS cell survival assay, CEM-R8; format: cell-based, human; settings: dexamethasone-resistant CCRF-CEM cells; dbcAMP dose response, 72 hours
Experimental: as §1, with “The data shown were normalized to the vehicle control. Results represent the mean±SD of triplicate determinations.” left out
(§4) Hoechst 33342 and DiOC6(3) apoptosis assays were performed as previously described^22,28. […] The absorbance (O.D.) of the formazan product was determined at 492 nm using a plate reader (Titertek Multiscan Plus, Labsystems). […]

B-CLL cells [3] = test: Hoechst 33342 apoptosis assay, B-CLL cells; format: cell-based, human; settings: 1 mM Rp-8Br-cAMPS + 1 μM hydrocortisone, 48 hours; six B-CLL patients
[4] = test system: GRE luciferase constructs transiently transfected into B-CLL cells; test: GRE luciferase transactivation in B-CLL cells; format: cell-based, human; settings: 1 mM Rp-8Br-cAMPS; 8 B-CLL samples; p<0.02
Experimental: B-CLL cells (FIG. 3A) or CCRF-CEM cells (FIG. 3B) were transiently transfected with a luciferase construct in which expression is regulated by GRE elements, followed by culture in 10 μM rolipram (R), 40 μM forskolin (Fsk), 1 μM hydrocortisone (HC), 1 mM Rp-8Br-cAMPS (Rp-8Br) or combinations of these agents. 12 hours after addition of the drugs, the relative luminescence of the samples was determined. The data shown are the mean of 8 experiments for B-CLL and two experiments for CCRF-CEM cells. The single asterisk denote a significant difference by paired student's t test between HC alone and either R/HC (FIG. 3A) or F/HC (FIG. 3B) (p<0.02). The double asterisk denotes a significant difference between Rp-8Br-cAMPS/HC and HC alone (p<0.02).
An MMTV GRE luciferase construct, originally created by Dr. R. Evans, was a gift from Dr. Remco Spanjaard (Dept. of Otolaryngology, Boston Medical Center)^29. 100 million B CLL cells in 200 μl of PBS were added to 500 μl of Nucleofector Solution D containing 30 μg of endotoxin-free (Qiagen) MMTV luciferase constructs. 100 μl was used per transfection using a Nucleofector electroporation instrument (Amaxa Biosystems, Koeln, Germany) using program U16. […] Up to six such aliquots of transfected cells were diluted in media and pooled, prior to distribution of 8 million cells/well in 48 well plates. Two hours after transfection, drugs, cytokines or vehicle alone were added to the transfected cells. 14 hours after transfection, samples were processed using a luciferase assay kit (Promega). Triplicate samples were analyzed with an MGM Instruments Optocomp I luminometer (Hamden, Conn.). Analysis of cell viability (trypan blue exclusion) and total protein (Pierce) verified that equivalent numbers of viable B-CLL cells were analyzed. 100 million CCRF-CEM cells were similarly transfected, cultured and analyzed except that Nucleofector program O17 was utilized. […] Data were analyzed using a two-sided paired t test for means.

PDE1 enzymes = settings: cited from earlier work
CD3+ CD4+ Sezary cells = test: Hoechst 33342 apoptosis assay, Sezary cells; format: cell-based, human; settings: 10 μM rolipram or 1 μM hydrocortisone; one patient
Experimental: Magnetic bead purified peripheral blood T cells or leukemic cells from patients with B-CLL or Sezary syndrome were cultured in media alone or with a dose titration of hydrocortisone (solid line), followed by assessment for apoptosis by Hoechst 33342 FACS analysis at 48 hours. Using the same experimental conditions, the effect of addition of 10 μM rolipram (thick dashed line) or 10 μM rolipram and 40 μM forskolin (dotted line) was also assessed. The SEM of triplicate samples is shown; where not visible, the SEM was less than 1.0%.
as §2, §3

B-CLL cells [5] = test: Hoechst 33342 apoptosis assay, B-CLL cells; format: cell-based, human; settings: for apoptosis by Hoechst 33342 analysis: 48 hrs culture, Roli 10 μM, HC 1 μM; for augmentation of hydrocortisone-induced apoptosis: 10 μM PDE inhibitor + 1 μM hydrocortisone
Experimental: FIGS. 1A-D show the effects of the cyclic nucleotide phosphodiesterase inhibitors rolipram, RO20-1724 and cilostamide on hydrocortisone and dexamethasone-induced apoptosis in B-CLL. In FIG. 1A, leukemic cells from 11 B-CLL patients were assessed for apoptosis by […] analysis after 48 hrs culture in media alone (No treatment), 10 μM rolipram (Roli), 1 μM hydrocortisone (HC) or a combination of the two drugs (Roli+HC). In FIGS. 1B and 1C, leukemic cells from five patients with B-CLL were cultured in media alone or with a dose titration of hydrocortisone (1B: solid line) or dexamethasone (1C: solid line), followed by assessment for apoptosis by Hoechst 33342 FACS analysis at 48 hours. Using the same experimental conditions, the effect of addition of 10 μM rolipram (thick dashed line) to the glucocorticoids was also assessed. In FIG. 1D, the apoptotic effects of the PDE4 inhibitor RO20-1724 (RO20) (10 μM) or the PDE3 inhibitor cilostamide (Cilost) (10 μM) were assessed on B-CLL cells when combined with 1 μM hydrocortisone. Data represent the mean±SEM of triplicate samples.
Blood samples were obtained by IRB-approved consent from flow cytometry-confirmed B-CLL patients that were either untreated or for whom at least one month had elapsed since chemotherapy. Patients with active infections or other serious medical conditions were not included in this study.
CCRF-CEM cells were obtained from ATCC^27. Leukemic or normal mononuclear cells were obtained by centrifugation over Histopaque 1077 (Sigma Chemical Company, St. Louis, Mo.). For purification of T cells, whole mononuclear cells from normal subjects were incubated with magnetic beads coated with appropriate antibodies, then positively purified using a magnet (Miltenyi). Cells were cultured in RPMI 1640 media (Biowhittaker, Walkersville, Md.) supplemented with 10% fetal calf serum, 50 μMol/L 2-mercaptoethanol, 2 mMol/L L-glutamine, 10 mM Hepes pH 7.4, […] (Sigma Chemical Company, St. Louis, Mo.). For isolation of glucocorticoid resistant clones, parental CCRF-CEM cells were treated with 1 μM dexamethasone for 10 days, and surviving cells diluted to ≦one cell/well in a 96-well flat-bottom tissue culture plate, grown for three weeks in media supplemented with 20% fetal calf serum and 1% insulin-transferrin-selenium (GIBCO), and then transferred to regular growth medium. […] For isolation of glucocorticoid-sensitive clones, the same procedure was used, except that treatment with dexamethasone was omitted. A glucocorticoid-sensitive subclone (CEM-S2) was inhibited in its survival by dexamethasone with an IC50=0.007 μM.
Hoechst 33342 and DiOC6(3) apoptosis assays were performed as previously described^22,28. For CCRF-CEM cell survival assays, cells were plated at a density of 3×10^4/well in 96-well flat-bottom plates in the presence of test reagents or vehicle in 0.1 mL media. Following incubation for 72 hrs, 20 μl of a 20:1 MTS (2 mg/mL)/PMS (0.92 mg/ml) solution was added to each well, and the plates incubated for 2 hrs at 37°. The absorbance (O.D.) of the formazan product was determined at 492 nm using a plate reader (Titertek Multiscan Plus, Labsystems). Percent cell viability was calculated as follows: (O.D. control sample−O.D. blank)/(O.D. test sample−O.D. blank)×100. All assays were performed in triplicate.

PDE4 = settings: cited from earlier work
CCRF-CEM cells = test: MTS cell survival assay, CCRF-CEM cells; format: cell-based, human; settings: 72 hours
Experimental: as §1, with “The data shown were normalized to the vehicle control. Results represent the mean±SD of triplicate determinations.” left out
as §4

C[C@@H]1C[C@H]2[C@@H]3CCC4=CC(=O)C=C[C@]4(C)[C@@]3(F)[C@@H](O)C[C@]2(C)[C@@]1(O)C(=O)CO [dexamethasone]
IC50 ([1]; Homo sapiens, CEM-S2 subclone, read-out: IC50, inhibition of survival): 7 nM

CCCC(=O)Nc1ncnc2c1ncn2[C@@H]1O[C@@H]2COP(=O)(O)O[C@H]2[C@H]1OC(=O)CCC [dbcAMP, dibutyryl cAMP]
apoptotic effect combined with 1 μM hydrocortisone [2]: marked synergy | apoptotic effect combined with 1 μM hydrocortisone ([1]; dexamethasone-sensitive CCRF-CEM cells, dbcAMP dose response): marked synergy

Nc1ncnc2c1nc(Br)n2C1OC2COP(O)(=S)OC2C1O (centres unmarked) [Rp-8Br-cAMPS, (Rp)-8-Br-cAMPS]
inhibition of hydrocortisone-induced apoptosis (B-CLL cells [3]): 86±14% | reduction of hydrocortisone-induced transactivation [4]: 83%

CCOC(=O)C1=C[C@]2(CC)CCCN3CCc4c(n1c1ccccc41)[C@@H]32 [vinpocetine]
IC50 (PDE1 enzymes): 21000 nM

C[C@]12CCC(=O)C=C1CC[C@@H]1[C@@H]2[C@@H](O)C[C@@]2(C)[C@H]1CC[C@]2(O)C(=O)CO [hydrocortisone]
apoptotic effect used separately on Sezary leukemic cells (CD3+ CD4+ Sezary cells): little effect | apoptosis by Hoechst 33342 analysis (B-CLL cells [5]; B-CLL patient #1, No Rx 10): 19% | apoptosis by Hoechst 33342 analysis (B-CLL cells [5]; B-CLL patient #2, No Rx 11): 16% | apoptosis by Hoechst 33342 analysis (B-CLL cells [5]; B-CLL patient #3, No Rx 13): 41% | apoptosis by Hoechst 33342 analysis (B-CLL cells [5]; B-CLL patient #4, No Rx 23): 42% | apoptosis by Hoechst 33342 analysis (B-CLL cells [5]; B-CLL patient #5, No Rx 25): 43% | apoptosis by Hoechst 33342 analysis (B-CLL cells [5]; B-CLL patient #6, No Rx 27): 33% | apoptosis by Hoechst 33342 analysis (B-CLL cells [5]; B-CLL patient #7, No Rx 31): 47% | apoptosis by Hoechst 33342 analysis (B-CLL cells [5]; B-CLL patient #8, No Rx 33): 60% | apoptosis by Hoechst 33342 analysis (B-CLL cells [5]; B-CLL patient #9, No Rx 35): 71% | apoptosis by Hoechst 33342 analysis (B-CLL cells [5]; B-CLL patient #10, No Rx 44): 75% | apoptosis by Hoechst 33342 analysis (B-CLL cells [5]; B-CLL patient #11, No Rx 61): 73%

CN(C(=O)CCCOc1ccc2[nH]c(=O)ccc2c1)C1CCCCC1 [cilostamide]
augmentation of hydrocortisone-induced apoptosis (B-CLL cells [5]; five B-CLL patients): nor augmented hydrocortisone-induced apoptosis | induction of apoptosis by itself (B-CLL cells [5]; 10 μM, five B-CLL patients): neither induced apoptosis by itself

CCCCOc1cc(CC2CNC(=O)N2)ccc1OC (centres unmarked) [RO20-1724, 4-(3-Butoxy-4-methoxybenzyl)-2-imidazolidinone]
IC50 (PDE4): 2000 nM | augmentation of hydrocortisone-induced apoptosis (B-CLL cells [5]; five B-CLL patients): augmented hydrocortisone-induced apoptosis

C=C[C@@]1(C)CC(=O)[C@@H]2[C@@]3(C)CCCC(C)(C)[C@@H]3[C@H](O)[C@H](OC(C)=O)[C@@]2(C)O1 [1,9 dideoxyforskolin]
augmentation of glucocorticoid sensitivity (CCRF-CEM cells): failed to augment glucocorticoid sensitivity
